Results taken from patent US20090123391A1, “Novel Formulations” (3M INNOVATIVE PROPERTIES COMPANY, priority 2006, published 2009).

Tests used:
[1] = Dose Through Unit (DTU) dose uniformity of MDI; type: physicochemical; conditions: for overall mean dose of medicament delivered through the actuator, combining beginning and end of use doses / overall mean dose delivered through the actuator, combined beginning and end of use: HFA 134a; for overall mean dose delivered through the actuator, combining beginning and end of use: Example 4: Compound A in combination with Compound D, HFA-134a MDI 100/100 μg/act, target output compound D 90 μg, compound A 90 μg; for overall mean dose delivered through the actuator, combined beginning and end of use: Example 5: Compound E in combination with Compound A, MDI 100/50 μg/act, target output Compound E 90 μg, Compound A 45 μg
Description: The dose collection apparatus (500 ml separatory funnel with a cotton plug) was assembled and the flow rate was set to 20 L/min. Test units were stored at ambient conditions for two weeks after manufacture prior to DTU testing. For the testing at the beginning of the unit, the MDIs were primed two times with a priming actuator and four times to waste with the test actuator, shaking the units between each actuation. Two test actuations were collected in the dose collection apparatus, shaking the unit between actuations. The collection apparatus was rinsed with an appropriate volume of diluent, and the rinsate with the collected dose was analyzed by conventional HPLC analysis. For end of unit testing, the MDIs were actuated an additional 48 times to waste, shaking between each actuation. The MDIs were then actuated four times to waste through a new test actuator. Two test actuations were then collected in the dose collection apparatus, shaking the unit between actuations. The collection apparatus was rinsed with an appropriate volume of diluent, and the rinsate with the collected dose was analyzed by conventional HPLC analysis.
The reported results are the average of ten units at both the beginning and end of unit use.

[2] = Andersen Cascade Impactor (ACI) fine particle fraction of MDI; type: physicochemical; conditions: for Fine Particle Fraction (FPF) expressed as percentage of 25 μg, the total dose target: Example 1: Compound A MDI, 25 μg/act; for Fine Particle Fraction (FPF) expressed as percentage of 25 μg, the total dose target / Fine Particle Fraction expressed as a percentage of the total dose target, for Compound B, 10 μg and for the Compound A, 25 μg / Fine Particle Fraction (FPF) expressed as a percentage of the total dose target, for Compound C, 12.5 μg and for Compound A, 25 μg / Fine Particle Fraction (FPF) expressed as percentage of the total dose target of Compound E, 100 μg and for Compound A, 50 μg: HFA 134a; for Fine Particle Fraction expressed as a percentage of the total dose target, for Compound B, 10 μg and for the Compound A, 25 μg: Example 2: Compound A in combination with Compound B; for Fine Particle Fraction expressed as a percentage of the total dose target, for Compound B, 10 μg and for the Compound A, 25 μg / Fine Particle Fraction (FPF) expressed as a percentage of the total dose target, for Compound C, 12.5 μg and for Compound A, 25 μg: MDI; for Fine Particle Fraction (FPF) expressed as a percentage of the total dose target, for Compound C, 12.5 μg and for Compound A, 25 μg: Example 3: Compound A in combination with Compound C, 25/12.5 μg/act; for Fine Particle Fraction (FPF) expressed as a percentage of the total dose target, for Compound D, 100 μg, and for Compound A, 100 μg: Example 4: Compound A in combination with Compound D, HFA-134a MDI 100/100 μg/act; for Fine Particle Fraction (FPF) expressed as percentage of the total dose target of Compound E, 100 μg and for Compound A, 50 μg: Example 5: Compound E in combination with Compound A, MDI 100/50 μg/act
From the text: The fine particle fraction of the aerosol formulations according to the invention may be measured by conventional techniques, for example, by cascade impaction by measuring particle size distribution. The Cascade Impactor is designed to mimic the human buccal cavity and bronchial tract and the cascade Impactor test is designed to reveal the amount of deposition of inhaled drug substance at various stages thereof. As used herein reference to the “cascade impaction” assay means determination of the deposition of the emitted dose in pressurised inhalations as defined in European Pharmacopoeia, Section 2.9.18, 5th edition “Preparations for Inhalation, Apparatus D”. Such techniques enable the “respirable fraction” of the aerosol formulations to be calculated. One method used to calculate the “respirable fraction” is by reference to “fine particle fraction” which is the amount of active ingredient collected in stages 3 to 5 (aerodynamic diameter 1.1-4.7 μm) which represents the lung, per actuation expressed as a percentage of the total amount of active ingredient delivered per actuation using the cascade impactor method described above. Earlier stages represent the aerosol device itself, the throat and the upper reaches of the bronchial tract, and the later stages representing potential systemic absorption through the wall of the lung which may cause serious side effects.
The Andersen Cascade Impactor Mark II (ACI) was assembled and the flow rate was set to 28.3 L/min. The units were primed four times with the test actuator prior to dose collection, shaking between actuations. Between 5 and 20 actuations were collected in the ACI assembly. The ACI was disassembled and the components were rinsed with an appropriate amount of solvent that ensures dissolution of all formulation ingredients. The rinsate was collected for analysis by conventional HPLC analysis.

[3] = 0.1% w/w of polymer of formula (II), 12 Week at 40° C./75% relative humidity
[4] = 0.1% w/w of polymer of formula (II), Initial
[5] = surfactant-free, 12 Week at 40° C./75% relative humidity

C[C@@H]1C[C@H]2[C@@H]3C[C@H](F)C4=CC(=O)C=C[C@]4(C)[C@@]3(F)[C@@H](O)C[C@]2(C)[C@@]1(OC(=O)c1ccco1)C(=O)SCF [Compound A, 6α, 9α-Difluoro-17α-[(2-furanylcarbonyl)oxy]-11β-hydroxy-16α-methyl-3-oxo-androsta-1,4-diene-17β-carbothioic acid S-fluoromethyl ester]
overall mean dose of medicament delivered through the actuator, combining beginning and end of use doses ([1]; Example 1: Compound A MDI, 25 μg/act, 0.1% w/w of polymer of formula (II), 12 Week at 40° C./75% relative humidity, target output 22.5 μg/act): 98%
overall mean dose of medicament delivered through the actuator, combining beginning and end of use doses ([1]; Example 1: Compound A MDI, 25 μg/act, 0.1% w/w of polymer of formula (II), Initial, target output 22.5 μg/act): 98%
overall mean dose of medicament delivered through the actuator, combining beginning and end of use doses ([1]; Example 1: Compound A MDI, 25 μg/act, surfactant-free, 12 Week at 40° C./75% relative humidity, target output 22.5 μg/act): 72%
overall mean dose of medicament delivered through the actuator, combining beginning and end of use doses ([1]; Example 1: Compound A MDI, 25 μg/act, surfactant-free, Initial, target output 22.5 μg/act): 66%
overall mean dose of medicament delivered through the actuator, combining beginning and end of use doses ([1]; Example 2: Compound A in combination with Compound B, MDI, 25/10 μg/act, 0.1% w/w of polymer of formula (II), 12 Week at 40° C./75% relative humidity, target output Compound B 8.5 μg, Compound A 22.5 μg): 110%
overall mean dose of medicament delivered through the actuator, combining beginning and end of use doses ([1]; Example 2: Compound A in combination with Compound B, MDI, 25/10 μg/act, 0.1% w/w of polymer of formula (II), Initial, target output Compound B 8.5 μg, Compound A 22.5 μg): 107%
overall mean dose of medicament delivered through the actuator, combining beginning and end of use doses ([1]; Example 2: Compound A in combination with Compound B, MDI, 25/10 μg/act, surfactant-free, 12 Week at 40° C./75% relative humidity, target output Compound B 8.5 μg, Compound A 22.5 μg): 62%
overall mean dose of medicament delivered through the actuator, combining beginning and end of use doses ([1]; Example 2: Compound A in combination with Compound B, MDI, 25/10 μg/act, surfactant-free, Initial, target output Compound B 8.5 μg, Compound A 22.5 μg): 63%
overall mean dose of medicament delivered through the actuator, combining beginning and end of use doses ([1]; Example 3: Compound A in combination with Compound C, MDI, 25/12.5 μg/act, 0.1% w/w polymer of formula (II), 12 Week at 40° C./75 relative humidity, target output Compound C 11.3 μg, Compound A 22.5 μg): 107%
overall mean dose of medicament delivered through the actuator, combining beginning and end of use doses ([1]; Example 3: Compound A in combination with Compound C, MDI, 25/12.5 μg/act, 0.1% w/w polymer of formula (II), Initial, target output Compound C 11.3 μg, Compound A 22.5 μg): 101%
overall mean dose of medicament delivered through the actuator, combining beginning and end of use doses ([1]; Example 3: Compound A in combination with Compound C, MDI, 25/12.5 μg/act, surfactant-free, 12 Week at 40° C./75 relative humidity, target output Compound C 11.3 μg, Compound A 22.5 μg): 76%
overall mean dose of medicament delivered through the actuator, combining beginning and end of use doses ([1]; Example 3: Compound A in combination with Compound C, MDI, 25/12.5 μg/act, surfactant-free, Initial, target output Compound C 11.3 μg, Compound A 22.5 μg): 75%
overall mean dose delivered through the actuator, combining beginning and end of use [1, 3]: 111%
overall mean dose delivered through the actuator, combining beginning and end of use [1, 4]: 106%
overall mean dose delivered through the actuator, combined beginning and end of use [1, 3]: 109%
overall mean dose delivered through the actuator, combined beginning and end of use [1, 4]: 104%
Fine Particle Fraction (FPF) expressed as percentage of 25 μg, the total dose target [2, 3]: 22%
Fine Particle Fraction (FPF) expressed as percentage of 25 μg, the total dose target [2, 4]: 24%
Fine Particle Fraction (FPF) expressed as percentage of 25 μg, the total dose target [2, 5]: 16%
Fine Particle Fraction (FPF) expressed as percentage of 25 μg, the total dose target ([2]; surfactant-free, Initial): 17%
Fine Particle Fraction expressed as a percentage of the total dose target, for Compound B, 10 μg and for the Compound A, 25 μg [2, 3]: 35%
Fine Particle Fraction expressed as a percentage of the total dose target, for Compound B, 10 μg and for the Compound A, 25 μg [2, 4]: 32%
Fine Particle Fraction expressed as a percentage of the total dose target, for Compound B, 10 μg and for the Compound A, 25 μg [2, 5]: 18%
Fine Particle Fraction expressed as a percentage of the total dose target, for Compound B, 10 μg and for the Compound A, 25 μg ([2]; surfactant-free, Initial): 18%
Fine Particle Fraction (FPF) expressed as a percentage of the total dose target, for Compound C, 12.5 μg and for Compound A, 25 μg ([2]; 0.1% w/w polymer of formula (II), 12 Week 40° C./75 relative humidity): 20%
Fine Particle Fraction (FPF) expressed as a percentage of the total dose target, for Compound C, 12.5 μg and for Compound A, 25 μg ([2]; 0.1% w/w polymer of formula (II), Initial): 21%
Fine Particle Fraction (FPF) expressed as a percentage of the total dose target, for Compound C, 12.5 μg and for Compound A, 25 μg ([2]; surfactant-free, 12 Week 40° C./75 relative humidity): 16%
Fine Particle Fraction (FPF) expressed as a percentage of the total dose target, for Compound C, 12.5 μg and for Compound A, 25 μg ([2]; surfactant-free, Initial): 11%
Fine Particle Fraction (FPF) expressed as a percentage of the total dose target, for Compound D, 100 μg, and for Compound A, 100 μg [2, 3]: 19%
Fine Particle Fraction (FPF) expressed as a percentage of the total dose target, for Compound D, 100 μg, and for Compound A, 100 μg [2, 4]: 21%
Fine Particle Fraction (FPF) expressed as percentage of the total dose target of Compound E, 100 μg and for Compound A, 50 μg [2, 3]: 22%
Fine Particle Fraction (FPF) expressed as percentage of the total dose target of Compound E, 100 μg and for Compound A, 50 μg [2, 4]: 23%
